Reference: patent publication US12421243B2, “Pharmaceutically effective compounds inhibiting selectively the myosin 2 isoforms” (PRINTNET KERESKEDELMI ÉS SZOLGÁLTATÓ KFT., priority 2018, dated 2025)
Read-outs that look alike come from different tables or passages of the source.

Key:
[1] = molecular target: recombinant human non-muscle myosin 2 NM2A (Homo sapiens, UniProt P35579); experiment: actomyosin steady state ATPase measurement, NM2A; assay type: biochemical
Text: (§1) […]; (ii) the concentration required for semi-maximal inhibition.

[2] = molecular target: T1, isolated porcine cardiac ventricular myocardium (cardiac) (Sus scrofa, UniProt P79293); experiment: actomyosin steady state ATPase measurement, cardiac myosin; assay type: biochemical
T1 construct: isolated porcine cardiac ventricular myocardium (cardiac); from tissue; host or cells: porcine cardiac ventricle
Text: as §1

[3] = molecular target: isolated smooth muscle myosin (UniProt P10587); assay type: biochemical, chamois
[4] = tissue concentrations after intraperitoneal injection into a live rat; assay type: in vivo; settings: ip, 6 mg i.p.
[5] = molecular target: recombinant human non-muscle myosin 2 NM2B (Homo sapiens, UniProt P35580); experiment: actomyosin steady state ATPase measurement, NM2B; assay type: biochemical
Text: as §1

[6] = molecular target: recombinant Dictyostelium miozin (Dictyostelium) (Dictyostelium discoideum, UniProt P08799); experiment: actomyosin steady state ATPase measurement, Dictyostelium myosin; assay type: biochemical
Chain of recombinant Dictyostelium miozin (Dictyostelium) (P08799 whole entry): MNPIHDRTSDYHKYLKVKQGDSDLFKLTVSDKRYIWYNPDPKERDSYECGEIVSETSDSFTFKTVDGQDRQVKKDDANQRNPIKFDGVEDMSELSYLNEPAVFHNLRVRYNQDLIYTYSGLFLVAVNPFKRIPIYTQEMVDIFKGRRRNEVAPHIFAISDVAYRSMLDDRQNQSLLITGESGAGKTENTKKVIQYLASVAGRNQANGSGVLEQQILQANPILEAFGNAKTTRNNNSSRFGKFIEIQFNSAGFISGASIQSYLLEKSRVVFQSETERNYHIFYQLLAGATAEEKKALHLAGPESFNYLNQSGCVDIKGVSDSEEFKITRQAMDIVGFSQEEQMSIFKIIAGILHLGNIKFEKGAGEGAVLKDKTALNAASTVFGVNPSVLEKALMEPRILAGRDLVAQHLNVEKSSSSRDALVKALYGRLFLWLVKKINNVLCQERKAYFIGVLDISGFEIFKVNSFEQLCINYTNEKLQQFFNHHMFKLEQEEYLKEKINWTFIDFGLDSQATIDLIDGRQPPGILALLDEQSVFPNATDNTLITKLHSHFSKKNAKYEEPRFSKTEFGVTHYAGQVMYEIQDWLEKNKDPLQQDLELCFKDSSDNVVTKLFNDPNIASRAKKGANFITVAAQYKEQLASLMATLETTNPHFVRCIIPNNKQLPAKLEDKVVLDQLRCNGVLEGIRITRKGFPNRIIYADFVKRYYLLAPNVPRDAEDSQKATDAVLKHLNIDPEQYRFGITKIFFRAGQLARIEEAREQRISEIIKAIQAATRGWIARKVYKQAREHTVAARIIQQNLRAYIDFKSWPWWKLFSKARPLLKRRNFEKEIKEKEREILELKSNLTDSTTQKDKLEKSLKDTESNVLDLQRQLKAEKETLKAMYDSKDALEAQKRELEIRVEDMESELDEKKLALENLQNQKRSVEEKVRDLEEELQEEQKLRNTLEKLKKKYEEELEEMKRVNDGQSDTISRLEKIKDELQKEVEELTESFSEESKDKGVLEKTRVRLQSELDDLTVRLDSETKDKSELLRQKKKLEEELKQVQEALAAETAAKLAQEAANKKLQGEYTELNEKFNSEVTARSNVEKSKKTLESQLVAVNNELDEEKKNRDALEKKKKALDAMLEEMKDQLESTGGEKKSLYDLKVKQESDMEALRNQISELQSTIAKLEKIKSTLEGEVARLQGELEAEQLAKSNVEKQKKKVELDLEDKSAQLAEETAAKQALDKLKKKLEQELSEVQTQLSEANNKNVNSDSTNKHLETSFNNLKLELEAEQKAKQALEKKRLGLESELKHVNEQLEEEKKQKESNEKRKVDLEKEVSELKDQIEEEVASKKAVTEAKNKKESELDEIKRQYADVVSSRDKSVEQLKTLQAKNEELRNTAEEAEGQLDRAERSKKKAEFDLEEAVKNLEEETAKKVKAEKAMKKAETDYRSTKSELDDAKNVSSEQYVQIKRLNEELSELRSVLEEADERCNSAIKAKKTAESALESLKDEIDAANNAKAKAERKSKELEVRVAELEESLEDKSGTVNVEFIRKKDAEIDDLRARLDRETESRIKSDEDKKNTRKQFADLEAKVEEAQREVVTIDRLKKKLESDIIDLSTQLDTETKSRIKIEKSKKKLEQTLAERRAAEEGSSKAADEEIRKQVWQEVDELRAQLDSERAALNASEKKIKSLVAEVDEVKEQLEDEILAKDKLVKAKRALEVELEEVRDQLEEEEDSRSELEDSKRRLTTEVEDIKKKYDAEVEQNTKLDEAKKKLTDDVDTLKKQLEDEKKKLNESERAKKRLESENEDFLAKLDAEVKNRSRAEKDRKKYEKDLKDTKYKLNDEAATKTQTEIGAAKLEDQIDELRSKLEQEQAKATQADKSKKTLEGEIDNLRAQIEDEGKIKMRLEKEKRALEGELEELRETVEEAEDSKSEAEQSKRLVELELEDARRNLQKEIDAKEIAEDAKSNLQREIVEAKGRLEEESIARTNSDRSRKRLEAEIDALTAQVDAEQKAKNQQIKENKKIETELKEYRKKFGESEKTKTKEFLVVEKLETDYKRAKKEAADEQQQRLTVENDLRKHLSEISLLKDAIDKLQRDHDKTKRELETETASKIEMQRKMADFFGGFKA
Text: as §1

S. typhimurium TA100 = experiment: Ames Reverse Mutagenicity Assay (Ames MPF Test), TA100; assay type: cell-based
Protocol: (§2) Mutagenicity of the compounds was determined in the Ames Reverse Mutagenicity Assay (Ames MPF Test, Xenometrix Inc.) approved by the OECD, EMA and FDA on S. typhimurium TA98 and TA100 strains without or in the presence of S9 rat liver fraction. Relative mutagenicity values were prepared using a table provided by the manufacturer. Relative mutagenicity values according to OECD, EMA, and FDA standards may not exceed 2 at any concentration because in such a case they are potentially mutagenic.

S. typhimurium TA98 = experiment: Ames Reverse Mutagenicity Assay (Ames MPF Test), TA98; assay type: cell-based
Protocol: as §2

[7] = solubility in PBS in the presence of 1% DMSO; assay type: physicochemical; settings: phosphate buffered saline with 1% DMSO, aqueous buffer, kinetic from dmso stock, PBS w/o Mg, Ca
[8] = molecular target: recombinant human non-muscle myosin 2 NM2C (Homo sapiens, UniProt Q7Z406); experiment: actomyosin steady state ATPase measurement, NM2C; assay type: biochemical
Chain of recombinant human non-muscle myosin 2 NM2C (Q7Z406 whole entry): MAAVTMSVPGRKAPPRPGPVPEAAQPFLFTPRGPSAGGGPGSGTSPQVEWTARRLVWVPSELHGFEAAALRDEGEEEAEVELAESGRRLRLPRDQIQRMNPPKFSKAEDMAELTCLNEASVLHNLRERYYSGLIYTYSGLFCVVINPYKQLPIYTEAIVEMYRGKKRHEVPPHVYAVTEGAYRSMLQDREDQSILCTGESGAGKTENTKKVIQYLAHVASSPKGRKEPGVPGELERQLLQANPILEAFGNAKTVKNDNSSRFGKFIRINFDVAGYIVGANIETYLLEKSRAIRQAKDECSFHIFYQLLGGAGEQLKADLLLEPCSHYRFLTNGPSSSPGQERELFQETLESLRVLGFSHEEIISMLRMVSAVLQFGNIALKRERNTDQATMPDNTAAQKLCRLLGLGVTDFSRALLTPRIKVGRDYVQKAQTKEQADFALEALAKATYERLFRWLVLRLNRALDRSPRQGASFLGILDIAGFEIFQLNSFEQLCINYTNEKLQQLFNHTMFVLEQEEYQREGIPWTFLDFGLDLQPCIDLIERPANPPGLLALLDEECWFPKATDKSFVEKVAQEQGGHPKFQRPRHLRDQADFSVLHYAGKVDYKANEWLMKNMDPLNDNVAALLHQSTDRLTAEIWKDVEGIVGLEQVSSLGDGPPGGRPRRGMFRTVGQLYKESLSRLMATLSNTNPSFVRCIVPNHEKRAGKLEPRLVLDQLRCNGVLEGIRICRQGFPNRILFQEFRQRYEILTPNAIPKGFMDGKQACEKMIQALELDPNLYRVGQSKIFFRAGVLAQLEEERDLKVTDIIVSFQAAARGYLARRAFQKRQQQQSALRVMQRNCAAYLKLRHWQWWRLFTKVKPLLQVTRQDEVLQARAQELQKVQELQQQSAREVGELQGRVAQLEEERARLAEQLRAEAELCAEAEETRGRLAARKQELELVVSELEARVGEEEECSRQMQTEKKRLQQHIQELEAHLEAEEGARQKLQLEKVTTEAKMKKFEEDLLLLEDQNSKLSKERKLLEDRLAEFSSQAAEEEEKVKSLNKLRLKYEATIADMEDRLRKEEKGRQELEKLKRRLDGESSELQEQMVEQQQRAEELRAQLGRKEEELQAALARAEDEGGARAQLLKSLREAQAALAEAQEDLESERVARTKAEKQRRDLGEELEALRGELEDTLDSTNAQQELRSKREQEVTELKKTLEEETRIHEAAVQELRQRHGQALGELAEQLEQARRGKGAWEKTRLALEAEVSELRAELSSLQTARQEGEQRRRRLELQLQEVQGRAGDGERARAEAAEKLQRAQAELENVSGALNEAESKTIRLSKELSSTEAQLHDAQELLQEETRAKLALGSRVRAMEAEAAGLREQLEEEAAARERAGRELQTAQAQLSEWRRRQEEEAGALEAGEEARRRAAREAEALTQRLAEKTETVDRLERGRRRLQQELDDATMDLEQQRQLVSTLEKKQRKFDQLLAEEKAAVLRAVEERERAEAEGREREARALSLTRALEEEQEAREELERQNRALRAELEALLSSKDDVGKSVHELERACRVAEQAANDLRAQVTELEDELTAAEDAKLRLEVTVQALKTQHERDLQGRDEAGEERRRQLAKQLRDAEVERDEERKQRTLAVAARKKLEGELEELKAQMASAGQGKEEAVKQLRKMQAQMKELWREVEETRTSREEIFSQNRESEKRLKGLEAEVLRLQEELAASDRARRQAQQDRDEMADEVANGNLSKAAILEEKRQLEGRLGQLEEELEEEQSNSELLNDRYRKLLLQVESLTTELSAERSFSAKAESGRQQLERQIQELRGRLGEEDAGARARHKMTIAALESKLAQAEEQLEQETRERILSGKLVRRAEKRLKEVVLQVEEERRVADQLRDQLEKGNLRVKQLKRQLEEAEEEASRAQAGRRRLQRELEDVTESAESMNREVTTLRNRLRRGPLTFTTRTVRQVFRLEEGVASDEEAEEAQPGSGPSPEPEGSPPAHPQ
Text: as §1

[9] = molecular target: isolated smooth muscle myosin (UniProt P10587); assay type: biochemical, chamois; settings: concentration required for semi-maximal inhibition of ATPase
Text: (ii) the concentration required for semi-maximal inhibition.

M. quadriceps femoris = experiment: isometric force measurement of live, anesthetized rat M. quadriceps femoris due to electrical stimulation; assay type: in vivo
Protocol: The maximum isometric force induced by the stimulation was determined after intraperitoneal injection of some of the compounds of the invention. During the measurement, the following parameters of live anesthetized rats were continuously monitored: • a) heart rate • b) blood flow in the neck arteries • c) respiratory frequency • d) blood oxygen saturation ratio Results from live anesthetized rats are summarized in the table below.

[10] = concentration required for semi-maximal inhibition of ATPase
[11] = maximum value of inhibition of ATPase activity
[12] = blood, read-out: Concentration of compound 188 in tissue samples (μM) blood
[13] = brain, read-out: Concentration of compound 188 in tissue samples (μM) brain
[14] = skeletal muscle, read-out: Concentration of compound 188 in tissue samples (μM) muscle
[15] = kidney, read-out: Concentration of compound 188 in tissue samples (μM) kidney
[16] = liver, read-out: Concentration of compound 188 in tissue samples (μM) liver
[17] = lung, read-out: Concentration of compound 188 in tissue samples (μM) lung
[18] = myocardium, read-out: Concentration of compound 188 in tissue samples (μM) myocardium
[19] = spleen, read-out: Concentration of compound 188 in tissue samples (μM) spleen
[20] = urine, read-out: Concentration of compound 188 in tissue samples (μM) urine

In the case of `O=C1c2ccsc2N=C2N(c3ccc(N4CCOCC4)cc3)CCC12O` (centres unmarked) [Compound 188, 9-Hydroxy-12-[4-(morpholin-4-yl)phenyl]-4-thia-2,12-diazatricyclo[7.3.0.0^3,7]dodeca-1,3(7),5-trien-8-one], the IC50 [1, 10] is reported as 82 µM, the “% inhibition. complete NM2A” value [1, 11] is reported as 31% and the inhibition at 5 µM ([1]; read-out: % inhibition at 5 μM (or 10 μM if racemate) NM2A, 5 μM (10 μM if racemate), ATPase activity) is reported as 0%. For the same molecule, the inhibition at 50 µM ([1]; read-out: % inhibition at 50 μM (or 100 μM if racemate) NM2A, 50 μM (100 μM if racemate), ATPase activity) was 9%, the IC50 [2, 10] was greater than 100 µM and the “% inhibition. complete cardiac” value [2, 11] was 32%. The inhibition at 5 µM ([2]; read-out: % inhibition at 5 μM (or 10 μM if racemate) cardiac, 5 μM (10 μM if racemate), ATPase activity) was 0%, the inhibition at 50 µM ([2]; read-out: % inhibition at 50 μM (or 100 μM if racemate) cardiac, 50 μM (100 μM if racemate), ATPase activity) was 8% and the “% inhibition at 5 μM (or 10 μM if racemate) Smooth” value ([3]; 5 μM (10 μM if racemate), ATPase activity) was 0%. The “% inhibition at 50 μM (or 100 μM if racemate) Smooth” value ([3]; 50 μM (100 μM if racemate), ATPase activity) was 11%, the “% inhibition. complete Smooth” value [3, 11] was 100% and the concentration at 5 min [4, 12] was 12 µM. The concentration at 15 min [4, 12] was 16 µM, the concentration at 30 min [4, 12] was 12 µM and the concentration at 45 min [4, 12] was 10 µM. It also gave a concentration at 60 min [4, 12] of 8 µM, a concentration at 5 min [4, 13] of 25 µM and a concentration at 15 min [4, 13] of 45 µM. The concentration at 30 min [4, 13] was 36 µM, the concentration at 45 min [4, 13] was 17 µM and the concentration at 60 min [4, 13] was 5 µM. It also gave a concentration at 5 min [4, 14] of 22 µM, a concentration at 15 min [4, 14] of 48 µM and a concentration at 30 min [4, 14] of 69 µM. The concentration at 45 min [4, 14] was 78 µM, the concentration at 60 min [4, 14] was 74 µM and the concentration at 5 min [4, 15] was 29 µM. For the same molecule, the concentration at 15 min [4, 15] was 56 µM, the concentration at 30 min [4, 15] was 20 µM and the concentration at 45 min [4, 15] was 12 µM. It also gave a concentration at 60 min [4, 15] of 3 µM, a concentration at 5 min [4, 16] of 30 µM and a concentration at 15 min [4, 16] of 18 µM. It also gave a concentration at 30 min [4, 16] of 12 µM, a concentration at 45 min [4, 16] of 9 µM and a concentration at 60 min [4, 16] of 3 µM. For the same molecule, the concentration at 5 min [4, 17] was 25 µM, the concentration at 15 min [4, 17] was 36 µM and the concentration at 30 min [4, 17] was 22 µM. For the same molecule, the concentration at 45 min [4, 17] was 9 µM, the concentration at 60 min [4, 17] was 4 µM and the concentration at 5 min [4, 18] was 36 µM. It also gave a concentration at 15 min [4, 18] of 48 µM, a concentration at 30 min [4, 18] of 26 µM and a concentration at 45 min [4, 18] of 18 µM. For the same molecule, the concentration at 60 min [4, 18] was 9 µM, the concentration at 5 min [4, 19] was 37 µM and the concentration at 15 min [4, 19] was 28 µM. The concentration at 30 min [4, 19] was 11 µM, the concentration at 45 min [4, 19] was 5 µM and the concentration at 60 min [4, 19] was 3 µM. For the same molecule, the concentration at 5 min [4, 20] was 58 µM, the concentration at 15 min [4, 20] was 77 µM and the concentration at 30 min [4, 20] was 72 µM. It also gave a concentration at 45 min [4, 20] of 63 µM, a concentration at 60 min [4, 20] of 21 µM and an IC50 [5, 10] of 5 µM. The “% inhibition. complete NM2B” value [5, 11] was 19%, the inhibition at 5 µM ([5]; read-out: % inhibition at 5 μM (or 10 μM if racemate) NM2B, 5 μM (10 μM if racemate), ATPase activity) was 8% and the inhibition at 50 µM ([5]; read-out: % inhibition at 50 μM (or 100 μM if racemate) NM2B, 50 μM (100 μM if racemate), ATPase activity) was 18%. The IC50 ([6]; concentration required for semi-maximal inhibition of ATPase, read-out: IC50 (μM) Dicty) was 13 µM, the “% inhibition. complete Dicty” value [6, 11] was 19% and the inhibition at 5 µM ([6]; read-out: % inhibition at 5 μM (or 10 μM if racemate) Dicty) was 5%. The inhibition at 50 µM ([6]; read-out: % inhibition at 50 μM (or 100 μM if racemate) Dicty) was 15%, the “Relative mutagenicity (as compared to the control value)” value (“Relative mutagenicity” for short) (S. typhimurium TA100; TA100, +S9, 31.25 μM) was 0.4 and the “Relative mutagenicity” value (S. typhimurium TA100; TA100, +S9, 62.5 μM) was 0.3. The “Relative mutagenicity” value (S. typhimurium TA100; TA100, +S9, 125 μM) was 0.6, the “Relative mutagenicity” value (S. typhimurium TA100; TA100, +S9, 250 μM) was 0.6 and the “Relative mutagenicity” value (S. typhimurium TA100; TA100, +S9, 500 μM) was 0.6. The “Relative mutagenicity” value (S. typhimurium TA100; TA100, +S9, 1000 μM) was 0.5, the “Relative mutagenicity” value (S. typhimurium TA100; TA100, −S9, 31.25 μM) was 0.8 and the “Relative mutagenicity” value (S. typhimurium TA100; TA100, −S9, 62.5 μM) was 0.5. For the same molecule, the “Relative mutagenicity” value (S. typhimurium TA100; TA100, −S9, 125 μM) was 0.6, the “Relative mutagenicity” value (S. typhimurium TA100; TA100, −S9, 250 μM) was 0.5 and the “Relative mutagenicity” value (S. typhimurium TA100; TA100, −S9, 500 μM) was 0.6. For the same molecule, the “Relative mutagenicity” value (S. typhimurium TA100; TA100, −S9, 1000 μM) was 0.7, the “Relative mutagenicity” value (S. typhimurium TA98; TA98, +S9, 31.25 μM) was 0.2 and the “Relative mutagenicity” value (S. typhimurium TA98; TA98, +S9, 62.5 μM) was 0.2. The “Relative mutagenicity” value (S. typhimurium TA98; TA98, +S9, 125 μM) was 0.4, the “Relative mutagenicity” value (S. typhimurium TA98; TA98, +S9, 250 μM) was 0.4 and the “Relative mutagenicity” value (S. typhimurium TA98; TA98, +S9, 500 μM) was 0.4. The “Relative mutagenicity” value (S. typhimurium TA98; TA98, +S9, 1000 μM) was 0.2, the “Relative mutagenicity” value (S. typhimurium TA98; TA98, −S9, 31.25 μM) was 1.2 and the “Relative mutagenicity” value (S. typhimurium TA98; TA98, −S9, 62.5 μM) was 0.3. For the same molecule, the “Relative mutagenicity” value (S. typhimurium TA98; TA98, −S9, 125 μM) was 0.7, the “Relative mutagenicity” value (S. typhimurium TA98; TA98, −S9, 250 μM) was 0.3 and the “Relative mutagenicity” value (S. typhimurium TA98; TA98, −S9, 500 μM) was 0.7. The “Relative mutagenicity” value (S. typhimurium TA98; TA98, −S9, 1000 μM) was 1.0, the solubility [7] was 1450 µM and the IC50 [8, 10] was 4 µM. The “Inhibition (%) NM2C” value ([8]; maximum inhibition, compounds in IC50 range 1-5 μM) was 15%, the “% inhibition. complete NM2C” value [8, 11] was 15% and the inhibition at 5 µM ([8]; read-out: % inhibition at 5 μM (or 10 μM if racemate) NM2C, 5 μM (10 μM if racemate), ATPase activity) was 8%. For the same molecule, the inhibition at 50 µM ([8]; read-out: % inhibition at 50 μM (or 100 μM if racemate) NM2C, 50 μM (100 μM if racemate), ATPase activity) was 14%, the IC50 [9] was greater than 100 µM and the “Maximum change in isometric force at rear leg (%)” value (“Maximum change … (%)” below) (M. quadriceps femoris; 1 mg i.p.) was 23%. The “Maximum change … (%)” value (M. quadriceps femoris; 3 mg i.p.) was 26% and the “Maximum change … (%)” value (M. quadriceps femoris; 6 mg i.p.) was 28%.
